In paper PMC6345595 (American journal of clinical oncology, 2019):

Experiments:
[1] = Plasma pharmacokinetics of dovitinib, gemcitabine and capecitabine by LC/MS/MS; format: in vivo, human; settings: for half-life: human, oral, 300 mg, median half-life (T1/2), dovitinib 300 mg
basic FGF (bFGF) = assay: Plasma bFGF Quantikine ELISA; format: in vivo, human; settings: 5 patients, baseline vs after 19 days of dovitinib 300 mg
[2] = target: fibroblast growth factor receptors (FGFRs); settings: read-out: IC50 against FGFRs; cited from earlier work
CYP 1A1/2 = settings: cited from earlier work
VEGF = assay: Plasma VEGF Quantikine ELISA; format: in vivo, human; settings: 5 patients, baseline vs after 19 days of dovitinib 300 mg
FGF23 = assay: Plasma FGF23 sandwich ELISA; format: in vivo, human; settings: out of 5 patients with paired samples; during the first cycle; dovitinib 300 mg daily 5 days on and 2 days off with gemcitabine and capecitabine
[3] = human, in vivo
[4] = AUC 0–8 hours, Day 1, capecitabine 1300 mg/m^2 total daily oral dose divided twice a day, concurrently with dovitinib 300 mg and gemcitabine, N=7
[5] = Day 1, capecitabine 1300 mg/m^2 total daily oral dose divided twice a day, concurrently with dovitinib 300 mg and gemcitabine, plasma, N=5
[6] = Day 1, capecitabine 1300 mg/m^2 total daily oral dose divided twice a day, concurrently with dovitinib 300 mg and gemcitabine, plasma, N=7
[7] = AUC 0–7.5 hours, Day 1, gemcitabine 1000 mg/m^2 intravenously, concurrently with dovitinib 300 mg and capecitabine, N=7

CCCCCOC(=O)Nc1nc(=O)n([C@@H]2O[C@H](C)[C@@H](O)[C@H]2O)cc1F [capecitabine]
AUC Max [1, 4]: 14439 ng·h/mL | AUC Min [1, 4]: 488 ng·h/mL | T1/2 Max [1, 5]: 4.07 h | T1/2 Min [1, 5]: 0.68 h | Cmax Max [1, 6]: 30300 ng/mL | Cmax Min [1, 6]: 98.8 ng/mL

CN1CCN(c2ccc3nc(-c4c(N)c5c(F)cccc5[nH]c4=O)[nH]c3c2)CC1 [dovitinib]
changes of bFGF plasma level (basic FGF (bFGF)): no observable trend | IC50 [2]: < 10 nM | metabolizing enzymes (CYP 1A1/2): mainly metabolized by CYP 1A1/2 and flavin-containing monooxygenase | difference in dovitinib level between Day1 and 19 (autoinduction) ([1]; 300 mg daily dose on 5 days on and 2 days off schedule): did not observe significant difference | accumulation following 3 weeks of dosing ([1]; dovitinib 300 mg dose, Day 1 vs Day 19 Cmax and AUC): slight accumulation | half-life ([1]; plasma, Day 1): ~15 h | half-life ([1]; plasma, Day 19): ~13 h | changes of VEGF plasma level (VEGF): no observable trend | patients with increased plasma FGF23 level (FGF23): 4 patients | patients with dose limiting toxicity (grade 3 colitis) ([3]; 1 cycle): 1 | recommended dose for expansion / RP2D ([3]; po, 21 day): 300 mg

Nc1ccn([C@@H]2O[C@H](CO)[C@@H](O)C2(F)F)c(=O)n1 [gemcitabine]
AUC Max [1, 7]: 12222 ng·h/mL | AUC Min [1, 7]: 6370 ng·h/mL
